Experimental data reported in patent US8304394B2, “Low side effect pharmaceutical composition containing isoniazid” (priority 2008, dated 2012).
Read-outs that look alike come from different tables or passages of the source.

Legend:
CYP2E1 [1] = target: T1, CYP2E1 (Homo sapiens, UniProt P05181); test: Chlorzoxazone hydroxylation inhibition (6-OH-CZX by LC/MS/MS); settings: human, microsomes, pH 7.4
CYP2E1 [2] = target: T1, CYP2E1; test: in vitro; settings: for inhibition at 40 min, 33 µM: pH 7.4; for inhibition at 40 min, 16.5 µM / inhibition at 40 min, 66 µM: pH 7.4, Inhibition of CYP 2E1 (%); for inhibition at 40 min, 16.5 µM: tested concentration 16.5 μM; for inhibition at 40 min, 66 µM: tested concentration 66 μM
[3] = target: human liver microsomal cytochrome P450 2E1 (CYP2E1) (Homo sapiens, UniProt P05181); test: Chlorzoxazone hydroxylation inhibition (6-OH-CZX by LC/MS/MS)
[4] = target: cDNA expressed human cytochrome P450 2E1 (CYP2E1) (Homo sapiens, UniProt P05181)
cDNA expressed human cytochrome P450 2E1 (CYP2E1), sequence (P05181 whole entry): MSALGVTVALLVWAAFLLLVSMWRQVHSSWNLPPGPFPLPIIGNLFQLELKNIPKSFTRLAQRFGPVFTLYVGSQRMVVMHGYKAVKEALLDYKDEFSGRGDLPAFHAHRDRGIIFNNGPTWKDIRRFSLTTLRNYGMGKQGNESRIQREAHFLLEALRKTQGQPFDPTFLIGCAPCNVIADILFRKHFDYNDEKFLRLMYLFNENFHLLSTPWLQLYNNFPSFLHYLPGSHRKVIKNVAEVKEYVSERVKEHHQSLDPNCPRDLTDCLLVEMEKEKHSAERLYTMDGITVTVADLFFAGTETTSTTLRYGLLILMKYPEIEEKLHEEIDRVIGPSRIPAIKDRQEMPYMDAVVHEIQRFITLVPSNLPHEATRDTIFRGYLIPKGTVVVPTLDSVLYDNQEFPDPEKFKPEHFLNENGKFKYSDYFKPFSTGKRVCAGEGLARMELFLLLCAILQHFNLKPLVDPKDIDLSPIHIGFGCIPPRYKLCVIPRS

T1 sequence (P05181 whole entry): as above
human liver microsomal cytochrome P450 2E1 (CYP2E1), sequence (P05181 whole entry): as above

Compound | inhibition at 30 min, 16.5 µM (CYP2E1 [1]) [%] | inhibition at 30 min, 33 µM (CYP2E1 [1]) [%] | inhibition at 30 min, 66 µM (CYP2E1 [1]) [%] | other results
C[C@@H]1O[C@@H](Oc2c(-c3ccc(O)c(O)c3)oc3cc(O)cc(O)c3c2=O)[C@H](O)[C@H](O)[C@H]1O [Quercitrin] | 33.5 ± 4.29 | 53.8 ± 3.51 | 61 ± 5.88 | 
O=c1c(O[C@@H]2O[C@H](CO)[C@H](O)[C@H](O)[C@H]2O)c(-c2ccc(O)c(O)c2)oc2cc(O)cc(O)c12 [Hyperoside] | -24.2 ± 1.19 | 35.6 ± 3.68 | 53.5 ± 1.2 | 
O=C(O)c1cc(O)c(O)c(O)c1 [gallic acid] | 10.5 ± 1.12 | 18.8 ± 2.03 | 28 ± 1.56 | inhibition at 40 min, 33 µM (CYP2E1 [2]): 42.7 ± 7.36%; inhibition at 40 min, 16.5 µM (CYP2E1 [2]): 35.6 ± 10%; inhibition at 40 min, 66 µM (CYP2E1 [2]): 48.2 ± 4.2%
O=c1cc(-c2ccccc2)oc2cc(O)c(O)c(O)c12 [Baicalein] | 35.3 ± 1.51 | 47.8 ± 3.4 | 50.1 ± 5.11 | 
O=c1c(O)c(-c2cc(O)c(O)c(O)c2)oc2cc(O)cc(O)c12 [Myricetin] | 42.2 ± 2.55 | 59.2 ± 1.27 | 61.6 ± 0.88 | 
C[C@@H]1O[C@@H](OC[C@H]2O[C@@H](Oc3c(-c4ccc(O)c(O)c4)oc4cc(O)cc(O)c4c3=O)[C@H](O)[C@@H](O)[C@@H]2O)[C@H](O)[C@H](O)[C@H]1O [Rutin] | 30 ± 0.81 | 30.1 ± 1.62 | 43.5 ± 3.09 | 
COc1cc(-c2oc3cc(O)cc(O)c3c(=O)c2O)ccc1O [Isorhamnetin] | 12.1 ± 1.06 | 18.7 ± 1.22 | 36.3 ± 1.59 | 
O=C1C[C@@H](c2ccc(O)cc2)Oc2cc(O)cc(O)c21 [Naringenin] | 19.5 ± 2.02 | 28.4 ± 2.21 | 45.2 ± 4.43 | inhibition at 40 min, 33 µM (CYP2E1 [2]): 36.8 ± 3.97%; inhibition at 40 min, 16.5 µM (CYP2E1 [2]): 25.1 ± 7.6%; inhibition at 40 min, 66 µM (CYP2E1 [2]): 41.8 ± 3.51%
O=c1c(O)c(-c2ccc(O)c(O)c2)oc2cc(O)cc(O)c12 [Quercetin] | 46.4 ± 4.68 | 53 ± 2.17 | 73.3 ± 1.57 | 
O=C(CCc1ccc(O)cc1)c1c(O)cc(O)cc1O [Phloretin] | 29.6 ± 3.21 | 39.8 ± 3.28 | 50.9 ± 2.09 | inhibition at 40 min, 33 µM (CYP2E1 [2]): 54.7 ± 2.84%; inhibition at 40 min, 16.5 µM (CYP2E1 [2]): 42 ± 3.63%; inhibition at 40 min, 66 µM (CYP2E1 [2]): 66.8 ± 4.79%
C=C(C)C1CC=C(C)CC1 (single isomer, unassigned; (+)) [(+)-Limonene] |  |  |  | Inhibition of CYP 2E1 (%) ([3]; tested concentration 16.5 μM): 13.77 ± 1.96%; Inhibition of CYP 2E1 (%) ([3]; tested concentration 33 μM): 38.05 ± 1.95%; Inhibition of CYP 2E1 (%) ([3]; tested concentration 66 μM): 63.64 ± 2.74%
COc1cc(C2Oc3cc([C@H]4Oc5cc(O)cc(O)c5C(=O)[C@@H]4O)ccc3OC2CO)ccc1O (some centres unmarked) [Silybin] | 59.5 ± 2.34 | 37.1 ± 1.15 | 39 ± 1.19 | 
O=c1c(-c2ccc(O)cc2)coc2cc(O)ccc12 [Daidzein] | 73.5 ± 1.74 | 76.3 ± 2.28 | 86.8 ± 1.04 | 
Oc1cc(O)c2c(c1)O[C@@H](c1ccc(O)c(O)c1)[C@@H](O)C2 [(+)-Epicatechin] |  |  |  | Inhibition of CYP 2E1 (%) ([3]; tested concentration 16.5 μM): 66.71 ± 1.79%; Inhibition of CYP 2E1 (%) ([3]; tested concentration 33 μM): 52.32 ± 1.59%
O=c1c(O)c(-c2ccc(O)cc2O)oc2cc(O)cc(O)c12 [Morin] | 36.9 ± 1.56 | 52.1 ± 1.7 | 60.3 ± 1.56 | 
(−)-Epicatechin-3-gallate |  |  |  | Inhibition of CYP 2E1 (%) ([3]; tested concentration 16.5 μM): 30.31 ± 1.27%; Inhibition of CYP 2E1 (%) ([3]; tested concentration 33 μM): 34.84 ± 1.72%; Inhibition of CYP 2E1 (%) ([3]; tested concentration 66 μM): 42.92 ± 0.65%
O=c1c(-c2ccc(O)cc2)coc2c([C@@H]3O[C@H](CO)[C@@H](O)[C@H](O)[C@H]3O)c(O)ccc12 [Puerarin] |  |  |  | inhibition at 40 min, 33 µM (CYP2E1 [2]): -4.64 ± 3.47%; inhibition at 40 min, 16.5 µM (CYP2E1 [2]): 0.43 ± 2.31%; inhibition at 40 min, 66 µM (CYP2E1 [2]): -12.9 ± 2.75%
COc1ccc([C@@H]2CC(=O)c3c(O)cc(O[C@@H]4O[C@H](CO)[C@@H](O)[C@H](O)[C@H]4O[C@@H]4O[C@@H](C)[C@H](O)[C@@H](O)[C@H]4O)cc3O2)cc1O [Neohesperidin] |  |  |  | Inhibition of CYP 2E1 (%) ([3]; tested concentration 16.5 μM): 42.81 ± 1.75%; Inhibition of CYP 2E1 (%) ([3]; tested concentration 33 μM): 48.96 ± 2.37%; Inhibition of CYP 2E1 (%) ([3]; tested concentration 66 μM): 58.70 ± 1.06%
COc1ccc([C@@H]2CC(=O)c3c(O)cc(O[C@@H]4O[C@H](CO[C@@H]5O[C@@H](C)[C@H](O)[C@@H](O)[C@H]5O)[C@@H](O)[C@H](O)[C@H]4O)cc3O2)cc1O [Hesperidin] |  |  |  | Inhibition of CYP 2E1 (%) ([3]; tested concentration 16.5 μM): 45.32 ± 1.57%; Inhibition of CYP 2E1 (%) ([3]; tested concentration 33 μM): 50.91 ± 2.81%; Inhibition of CYP 2E1 (%) ([3]; tested concentration 66 μM): 58.57 ± 3.78%
O=c1cc(-c2ccc(O)cc2)oc2cc(O)c([C@@H]3O[C@H](CO)[C@@H](O)[C@H](O)[C@H]3O)c(O)c12 [Isovitexin] | 59.8 ± 1.41 | 67.6 ± 3.24 | 81.8 ± 1.34 | 
O=c1cc(-c2ccc(O)c(O)c2)oc2cc(O[C@@H]3O[C@H](CO)[C@@H](O)[C@H](O)[C@H]3O)cc(O)c12 [Luteolin-7-Glucoside] |  |  |  | Inhibition of CYP 2E1 (%) ([3]; tested concentration 16.5 μM): 42.96 ± 5.10%; Inhibition of CYP 2E1 (%) ([3]; tested concentration 33 μM): 55.87 ± 0.67%; Inhibition of CYP 2E1 (%) ([3]; tested concentration 66 μM): 60.26 ± 1.11%
O=c1cc(-c2ccccc2)oc2ccc3ccccc3c12 [β-naphthoflavone] |  |  |  | Inhibition of CYP 2E1 (%) ([4]; tested concentration 16.5 μM): 6.52 ± 6.64%; Inhibition of CYP 2E1 (%) ([4]; tested concentration 33 μM): 16.83 ± 0.96%; Inhibition of CYP 2E1 (%) ([4]; tested concentration 66 μM): 15.40 ± 12.94%
